This is an account of results in paper PMC7961521 (2021).

For assay [1], the system named is 3G (DNA, G4) TTAGGGTTAGGGTTAGGGTTACCTAGGCATCCTCCAGTTCCTGGAGTCAGTG
The experiment in a line: fluorescent dye displacement. Particulars: 100 mM KCl; 10 mM Tris-HCl pH 7.2; B6,5 1 µM displaced; 0.5 µM nucleic acid.

Assay [2] has as its system 4G (DNA, G4) AGGGTTAGGGTTAGGGTTAGGGTTACCTAGGCATCCTCCAGTTCCTGGAGTCAGTG
In words: fluorescent dye displacement. The conditions noted are these: 100 mM KCl; 10 mM Tris-HCl pH 7.2; B6,5 1 µM displaced; 0.5 µM nucleic acid.

Assay [3] concerns RG4 (RNA, G4) AAGGAAGGGGAAGUCAGGUGGGGCCUGGGGAACCAGGAAGCGGGGAACAGG
In words: fluorescent dye displacement. Particulars: 100 mM KCl; 10 mM Tris-HCl pH 7.2; B6,5 1 µM displaced; 0.5 µM nucleic acid; 1 equivalent of ligand.

Assay [4] deals with 4G (DNA, G4) AGGGTTAGGGTTAGGGTTAGGGTTACCTAGGCATCCTCCAGTTCCTGGAGTCAGTG
In words: fluorescence Job's plot. The conditions noted are these: 100 mM KCl; 1×PBS pH 7.4, 37 °C; total concentration 5 µM.

In assay [5] the test system is RG4 (RNA, G4) AAGGAAGGGGAAGUCAGGUGGGGCCUGGGGAACCAGGAAGCGGGGAACAGG
In words: fluorescence Job's plot. The conditions noted are these: 100 mM KCl; 1×PBS pH 7.4, 37 °C; total concentration 5 µM.

The subject of assay [6] is 3G template annealed to primer P31 (DNA, G4) TTAGGGTTAGGGTTAGGGTTACCTAGGCATCCTCCAGTTCCTGGAGTCAGTG/CACTGACTCCAGGAACTGGAGGATGCCTAGG
In words: Taq polymerase stop assay. The conditions noted are these: 100 mM KCl, Mg2+; Tris-HCl pH 8.0; 0 to 100 µM ligand; extension at 40 °C.

The test system of assay [7] is 4G template annealed to primer P31 (DNA, G4) AGGGTTAGGGTTAGGGTTAGGGTTACCTAGGCATCCTCCAGTTCCTGGAGTCAGTG/CACTGACTCCAGGAACTGGAGGATGCCTAGG
The experiment in a line: Taq polymerase stop assay. The conditions noted are these: 100 mM KCl, Mg2+; Tris-HCl pH 8.0; 0 to 100 µM ligand; extension at 40 °C.

In assay [8] the test system is H50 template annealed to primer H50/c49 (DNA, G4) AGGGTTAGGGTTAGGGTTAGGGGCCACCGCAATTGCTATAGTGAGTCGT/ACGACTCACTATAGCAATTGCG
The experiment in a line: Taq polymerase stop assay. The conditions noted are these: 100 mM KCl, Mg2+; Tris-HCl pH 8.0; extension at 40 °C.

Assay [9] concerns c49 (C49) template annealed to primer H50/c49 (DNA, G4) TGAGGGTGGGGAGGGTGGGGAAGCCACCGCAATTGCTATAGTGAGTCGT/ACGACTCACTATAGCAATTGCG
The experiment in a line: Taq polymerase stop assay. Particulars: 100 mM KCl, Mg2+; Tris-HCl pH 8.0; extension at 50 °C.

For assay [10], the system named is 3G (DNA, G4) TTAGGGTTAGGGTTAGGGTTACCTAGGCATCCTCCAGTTCCTGGAGTCAGTG
In words: fluorescence, reporter dye in displacement assay. The conditions noted are these: 100 mM KCl; 10 mM Tris-HCl pH 7.2; dye 1 µM, DNA 0.5 µM.

The subject of assay [11] is 4G (DNA, G4) AGGGTTAGGGTTAGGGTTAGGGTTACCTAGGCATCCTCCAGTTCCTGGAGTCAGTG
The experiment in a line: fluorescence, reporter dye in displacement assay. Particulars: 100 mM KCl; 10 mM Tris-HCl pH 7.2; dye 1 µM, DNA 0.5 µM.

For `CN1CCC[C@H]1CCNC(=O)c1cn2c3c(c(N4CCC(c5cnccn5)C4)c(F)cc3c1=O)Oc1cc3ccccc3cc1-2` (some centres unmarked), the binding result in assay [1] and in assay [2] was “yes” in each case. Besides, the “% displacement of B6,5” value in assay [3] is above 60%.
In the case of `C1=C2Sc3ccccc3N2CCCCCCN2C(=C/C=C/C=C/c3sc4ccccc4[n+]3CCCCCC[n+]3c(sc4ccccc43)/C=C/C=C/1)Sc1ccccc12`, the binding result in [4], in assay [5], in [6], in assay [7], in [8] and in assay [9] was “yes” in each case. The binding entry in assay [10] is “yes”.
For the compound `O=C(c1cc(Cc2n[nH]c(=O)c3ccccc23)ccc1F)N1CCN(C(=O)C2CC2)CC1`, the values for the binding result in assay [1] and in assay [2] were “weak” and “yes”, respectively. In [3], the “% displacement of B6,5” value is listed as above 60%.
Taken in the same sequence, the figures for `C[n+]1ccc(-c2c3nc(c(-c4cc[n+](C)cc4)c4ccc([nH]4)c(-c4cc[n+](C)cc4)c4nc(c(-c5cc[n+](C)cc5)c5ccc2[nH]5)C=C4)C=C3)cc1` were “yes”, “yes” and above 60%.
Take `O=C(/C=C/C=C/c1ccc2c(c1)OCO2)N1CCCCC1`: the binding entry is on record as “weak” in assay [1] and “yes” in [2].
Take `CN1C(=Cc2cc[n+](C)c3ccccc23)Sc2ccccc21`: the binding result in assay [10] and in [11] was “yes” in each case.
